Several values for one entry are separate records, joined by “and”; a condition that tells them apart may be missing. Equal entries are not always repeated. Entries after “also recorded” stand apart in the source; their conditions may differ.
Assays:
ShKAI2iB S95A = experiment: ITC binding to ShKAI2iB S95A mutant; parameters: species or system Striga hermonthica
Protocol: (§1) The coding sequence cDNA of ShKAI2iB was amplified by PCR using total complementary DNA from the total RNA of 1-day conditioned Striga seeds. ShKAI2iB (1–270, C270S) was designed for crystallization and other assays. For expression in Escherichia coli, the PCR product was cloned into an expression vector pGEX-6P-3 (GE Healthcare) and subsequently transformed into E. coli strain Rosetta (DE3) (Novagen). IPTG-induced overexpression was performed for 20 h at 25 °C. For purification, cell pellets were lysed by sonication in buffer A (20 mM Tris-HCl, pH 8.0, 0.3 M NaCl, 1 mM DTT), and the soluble fraction separated by centrifugation was purified using Glutathione Sepharose 4B resin (GE Healthcare) and a Resource Q anion-exchange column (GE Healthcare). ShKAI2iB mutants were overexpressed and purified with the same procedure as wild-type protein. For crystallization, buffer exchange accompanied by concentration was performed using Vivaspin 20 (5,000 MWCO PES) (Sartorius). Purified ShKAI2iB was dialyzed against buffer B (20 mM HEPES-NaOH, pH 8.0, 50 mM NaCl) for the ITC experiments and the intrinsic fluorescence assay.
Binding assays of ShKAI2iB and KAR1 were performed using a MicroCal iTC200 isothermal titration calorimeter (GE Healthcare). […] The dissociation constant (KD) values were calculated from duplicate thermograms (mean ± S.D.). […]

ShKAI2iB F190L = ShKAI2iB F190L (Striga hermonthica, UniProt A0A0M3PN85, C270S/F190L); experiment: ITC binding to ShKAI2iB F190L mutant
Sequence of ShKAI2iB F190L (A0A0M3PN85 1-270 F190L/C270S): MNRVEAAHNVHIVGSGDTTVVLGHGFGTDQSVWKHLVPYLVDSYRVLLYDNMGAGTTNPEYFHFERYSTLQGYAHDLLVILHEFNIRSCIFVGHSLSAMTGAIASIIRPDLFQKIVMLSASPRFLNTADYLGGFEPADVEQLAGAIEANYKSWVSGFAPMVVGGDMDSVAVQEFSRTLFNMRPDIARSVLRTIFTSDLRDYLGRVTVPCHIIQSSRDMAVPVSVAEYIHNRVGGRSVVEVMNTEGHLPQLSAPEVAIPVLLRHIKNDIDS
Protocol: as §1
(§2) Binding assays of ShKAI2iB and KAR1 were performed using a MicroCal iTC200 isothermal titration calorimeter (GE Healthcare). Prior to the ITC experiments, concentrated ShKAI2iB was dialyzed against a buffer consisting of 20 mM HEPES-NaOH, pH 8.0, and 50 mM NaCl to remove dithiothreitol and then adjusted to a final concentration of 150 μM. The sample cell was filled with ShKAI2iB solution (204 μl). Two microliters of 3 mM KAR1 or 3 mM rac-GR24 (equimolar mixture of two enantiomers: GR24^5DS and GR24^ent-5DS) was injected into the prepared protein solution by 20 consecutive 2.0 μl aliquots at 150 s intervals at 10 °C. The first injection volume was 0.4 μl, and the observed thermal peak was excluded from the data analyses. Duplicate experiments were performed independently. […] The dissociation constant (KD) values were calculated from duplicate thermograms (mean ± S.D.). […]

ShKAI2iB [1] = target: T1, ShKAI2iB (Striga hermonthica, UniProt A0A0M3PN85, C270S); experiment: Intrinsic fluorescence binding assay
T1 sequence (A0A0M3PN85 1-270 C270S): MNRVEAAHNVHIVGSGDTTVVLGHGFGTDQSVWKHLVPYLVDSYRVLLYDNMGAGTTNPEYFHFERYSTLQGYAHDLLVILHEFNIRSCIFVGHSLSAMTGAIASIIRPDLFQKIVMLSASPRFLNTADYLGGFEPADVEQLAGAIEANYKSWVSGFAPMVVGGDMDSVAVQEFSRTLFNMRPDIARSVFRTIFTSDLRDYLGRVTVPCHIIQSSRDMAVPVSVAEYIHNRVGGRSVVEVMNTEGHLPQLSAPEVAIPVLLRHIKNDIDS
Protocol: The coding sequence cDNA of ShKAI2iB was amplified by PCR using total complementary DNA from the total RNA of 1-day conditioned Striga seeds. ShKAI2iB (1–270, C270S) was designed for crystallization and other assays. For expression in Escherichia coli, the PCR product was cloned into an expression vector pGEX-6P-3 (GE Healthcare) and subsequently transformed into E. coli strain Rosetta (DE3) (Novagen). IPTG-induced overexpression was performed for 20 h at 25 °C. […] Purified ShKAI2iB was dialyzed against buffer B (20 mM HEPES-NaOH, pH 8.0, 50 mM NaCl) for the ITC experiments and the intrinsic fluorescence assay.
KD values were also determined by using intrinsic fluorescence assays. Fluorescence measurements were conducted as previously described[16] with minor modifications. […] Flat-bottomed, black 96 well plates were used to read fluorescence intensity using a Tecan Infinite M1000 monochromator. Measurements were taken at room temperature under a 285 nm excitation wavelength, a 333 nm emission wavelength, 50 flashes, and a 400 Hz flash frequency with a gain of 70 and a 2 μs integration time. ΔF (rfu, relative fluorescence units) was calculated by subtracting the fluorescence of the DMSO control. […]

ShKAI2iB F194A = ShKAI2iB F194A (Striga hermonthica, UniProt A0A0M3PN85, C270S/F194A); experiment: ITC binding to ShKAI2iB F194A mutant
Sequence of ShKAI2iB F194A (A0A0M3PN85 1-270 F194A/C270S): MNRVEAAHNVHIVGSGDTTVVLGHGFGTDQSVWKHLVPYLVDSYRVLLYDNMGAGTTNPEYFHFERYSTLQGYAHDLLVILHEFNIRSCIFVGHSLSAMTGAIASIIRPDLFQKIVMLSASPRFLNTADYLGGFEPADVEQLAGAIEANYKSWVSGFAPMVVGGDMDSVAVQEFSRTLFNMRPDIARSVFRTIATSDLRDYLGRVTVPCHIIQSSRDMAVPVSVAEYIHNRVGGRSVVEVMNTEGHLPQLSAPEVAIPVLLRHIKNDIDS
Protocol: as §1
(§3) Binding assays of ShKAI2iB and KAR1 were performed using a MicroCal iTC200 isothermal titration calorimeter (GE Healthcare). Prior to the ITC experiments, concentrated ShKAI2iB was dialyzed against a buffer consisting of 20 mM HEPES-NaOH, pH 8.0, and 50 mM NaCl to remove dithiothreitol and then adjusted to a final concentration of 150 μM. The sample cell was filled with ShKAI2iB solution (204 μl). […] of 3 mM KAR1 or 3 mM rac-GR24 (equimolar mixture of two enantiomers: GR24^5DS and GR24^ent-5DS) was injected into the prepared protein solution by 20 consecutive 2.0 μl aliquots at 150 s intervals at 10 °C. The first injection volume was 0.4 μl, and the observed thermal peak was excluded from the data analyses. Duplicate experiments were performed independently. A negative control was made by titrating 3 mM KAR1 into a buffer (20 mM HEPES, pH 8.0, 50 mM NaCl) in the same manner. Data fitting was performed using Origin software in the “one set of sites” mode. The dissociation constant (KD) values were calculated from duplicate thermograms (mean ± S.D.).
(§4) Supplementary Figure 4. Results of ITC experiments between ShKAI2iB mutants and KAR1. ITC experiments were performed b y titrating KAR1 into ShKA I2iB mutants (a, F194A; b, S95A; c, L142A; d, F190L; e, V139 L) or into buffer as a negat ive control (f). The upper panel illustrates raw ITC data. The bottom panel represents data of the enthalpy cha nge deri ved fr om the upper panel. Corres ponding […]
(§5) (1 picture or pasted object on this page, not shown here)

ShKAI2iB L142A = ShKAI2iB L142A (Striga hermonthica, UniProt A0A0M3PN85, C270S/L142A); experiment: ITC binding to ShKAI2iB L142A mutant
Sequence of ShKAI2iB L142A (A0A0M3PN85 1-270 L142A/C270S): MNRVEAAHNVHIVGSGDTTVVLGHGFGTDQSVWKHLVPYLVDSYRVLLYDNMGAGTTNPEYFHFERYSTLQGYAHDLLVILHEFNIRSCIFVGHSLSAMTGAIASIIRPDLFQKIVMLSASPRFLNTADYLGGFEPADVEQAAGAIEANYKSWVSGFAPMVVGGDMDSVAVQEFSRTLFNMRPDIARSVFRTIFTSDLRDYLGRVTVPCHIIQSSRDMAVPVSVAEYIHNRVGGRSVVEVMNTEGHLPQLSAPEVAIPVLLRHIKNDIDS
Protocol: as §1, §3, §4, §5

KAI2 [2] = system: KAI2; parameters: method as in PMID 25126711; settings: cited from earlier work
S. hermonthica = system: S. hermonthica; parameters: method as in PMID 26228149; settings: cited from earlier work
ShKAI2iB V139L = ShKAI2iB V139L (Striga hermonthica, UniProt A0A0M3PN85, C270S/V139L); experiment: ITC binding to ShKAI2iB V139L mutant
Sequence of ShKAI2iB V139L (A0A0M3PN85 1-270 V139L/C270S): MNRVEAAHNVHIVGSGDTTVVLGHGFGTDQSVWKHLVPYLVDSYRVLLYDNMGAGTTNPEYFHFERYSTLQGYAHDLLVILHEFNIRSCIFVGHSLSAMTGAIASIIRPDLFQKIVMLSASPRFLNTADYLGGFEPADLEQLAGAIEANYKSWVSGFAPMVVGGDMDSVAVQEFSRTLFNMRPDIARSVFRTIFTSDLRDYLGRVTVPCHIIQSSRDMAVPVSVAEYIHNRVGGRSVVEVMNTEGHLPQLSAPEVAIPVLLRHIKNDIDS
Protocol: as §1, §2

ShKAI2iB [3] = target: T1, ShKAI2iB; experiment: ITC binding to ShKAI2iB (wild type)
Protocol: as §1, §3

ShKAI2iB [4] = target: T1, ShKAI2iB; experiment: Enzymatic degradation (hydrolysis) assay of rac-GR24 with HPLC; assay type: biochemical; settings: 10 μM rac-GR24, 6 μg ml^−1 protein, 3 h, 37 °C
Protocol: The enzymatic degradation assay of rac-GR24 was performed in a total volume of 1 ml of PBS buffer containing 10 μM rac-GR24. Purified OsD14[23] and ShKAI2iB were added at a final concentration of 6 μg ml^−1 and incubated for 3 h at 37 °C. Then 100 mg of NaCl and 100 μl of 0.1 M HCl were added to each reaction solution, and the reaction solutions were extracted with 400 μl of ethyl acetate three times. The ethyl acetate layers were combined and dried in vacuo and dissolved in 50 μl of methanol. For each layer, 10 μl was applied to the HPLC analyses. The reverse-phase chromatographic separation was performed on a Jasco HPLC system that was equipped with an HPLC pump of model PU 2080 (Jasco) and a photodiode array detector MD1510 (Jasco). The system was controlled by the ChromNAV (Ver. 1.18.07) software program (Jasco). The analytical column was a CAPCELL CORE C18 (Φ 4.6 × 100 mm, Shiseido). The analytes were eluted under gradient conditions using methanol ramped linearly to 90% methanol at 9 min and held for 4.5 min before resetting to the original conditions. The contents of rac-GR24 was calculated by the peak area at the retention time 6.2 min with the regression equation obtained from the calibration curve produced using a dilution series of rac-GR24 solution. […] Statistical differences between the groups were calculated with ANOVA analysis followed by Tukey–Kramer test.

KAI2 [5] = system: KAI2; parameters: method as in PMID 25126711; settings: cited from earlier work; remark: listed apart in the source

## Cc1c2ccocc-2oc1=O [KAR1, 3-methyl-2H-furo [2,3-c] pyran-2-one]
ShKAI2iB S95A
  heat change in ITC (binding): almost no heat change; also recorded: abolishes binding
ShKAI2iB F190L
  ΔG: –4.75 kcal/mol
  ΔH: –11.71 ± 8.89 kcal mol^–1
  ΔS: –24.6 cal mol^–1 deg^–1
ShKAI2iB [1]
  Kd: 70 ± 3.4 µM
ShKAI2iB F194A
  Kd: 107 ± 10 µM
ShKAI2iB F194A; F194A mutant
  change of ITC result versus wild type: no significant change
  ΔG: –5.11 kcal/mol
  ΔH: –13.24 ± 63.94 kcal mol^–1
  ΔS: –28.7 cal mol^–1 deg^–1
ShKAI2iB L142A
  Kd: 196 ± 24 µM
ShKAI2iB L142A; L142A mutant
  ΔG: –4.76 kcal/mol
  ΔH: –7.00 ± 0.70 kcal mol^–1
  ΔS: –7.90 cal mol^–1 deg^–1
KAI2 [2]
  binding to KAI2: able to bind
S. hermonthica
  induction of germination of S. hermonthica: failed to induce germination
ShKAI2iB V139L
  ΔH: –12.87 ± 0.03 kcal mol^–1
  ΔS: –24.8 cal mol^–1 deg^–1
ShKAI2iB V139L; KD, ITC
  Kd: 35.6 µM and 36 µM
ShKAI2iB [3]
  Kd: 77.6 ± 3.4 µM
ShKAI2iB [3]; wild-type ShKAI2iB, ITC
  N (number of sites): 0.91 ± 0.05
  ΔG: –5.35 kcal/mol
ShKAI2iB [3]; wild-type ShKAI2iB, ITC, 10 °C
  ΔS (entropy change): –3.99 cal mol^–1 deg^–1

## CC1=CC(OC=C2C(=O)OC3c4ccccc4CC23)OC1=O (racemic) [rac-GR24]
ShKAI2iB [4]
  hydrolysis by ShKAI2iB: not capable of hydrolyzing
ShKAI2iB [4]; listed as GR24
  hydrolysis by ShKAI2iB: unable to bind and hydrolyze
ShKAI2iB [1]; wild-type ShKAI2iB
  fluorescence change (binding): no detectable heat change or fluorescence change
KAI2 [5]
  hydrolysis by KAI2: exhibits hydrolytic activity
KAI2 [2]
  binding to KAI2: able to bind
ShKAI2iB [3]; wild-type ShKAI2iB, 3 mM ligand titrated
  heat change in ITC (binding): no detectable heat change
